ChEMBL document CHEMBL1136131, “Synthesis of poly(ethylene glycol) with sulfadiazine and chlorambucil end groups and investigation of its antitumor activity” (Bioorg Med Chem Lett, 2003)

Assay: Acute toxicity in mice
Details: mouse, in vivo

O=C(O)CCCc1ccc(N(CCCl)CCCl)cc1 [CHLORAMBUCIL]
LD50: 49.54 mg⁻¹ kg⁻¹
